Assay results from US11414378B2, “Anti-fungals compounds targeting the synthesis of fungal sphingolipids” (THE RESEARCH FOUNDATION FOR THE STATE UNIVERSITY OF NEW YORK, priority 2017, dated 2022).
In brackets after ≈: the same amount, converted by molar mass.

test system: HepG2; test: HepG2 toxicity; format: cell-based; conditions: Tables 1-3

Point of comparison: Cc1ccc(O)c(/C=N/NC(=O)c2cc(Br)ccc2O)c1, HepG2 16 µg/mL. Against it:
- Cc1ccc(O)c(/C=N/NC(=O)c2ccc(Br)cc2Br)c1 — the same, 16 µg/mL
- Cc1ccc(O)c(/C=N/NC(=O)c2cc(Br)ccc2Br)c1 — 2-fold higher, 32 µg/mL
- O=C(N/N=C/c1cc(Cl)ccc1O)c1ccc(Br)cc1Br — 4-fold higher, 64 µg/mL
- O=C(N/N=C/c1cc(Cl)ccc1O)c1cccc(F)c1F — 2-fold higher, 32 µg/mL
- O=C(N/N=C/c1cc(Cl)ccc1O)c1cc(Br)ccc1Br — 2-fold higher, 32 µg/mL
- O=C(N/N=C/c1cc(Cl)cc(Cl)c1O)c1ccc(Br)cc1Br — 4-fold higher, 64 µg/mL
- O=C(N/N=C/c1cc(Cl)cc(Cl)c1O)c1cc(Br)ccc1Br — 2-fold higher, 32 µg/mL
- O=C(N/N=C/c1c(O)ccc2ccccc12)c1cc(Br)ccc1Br — the same, 16 µg/mL
- O=C(N/N=C/c1ccc(Br)cc1O)c1cccc(Br)c1 — 1.8-fold lower, 9 µg/mL
- O=C(N/N=C/c1ccc(Br)cc1O)c1cccc(F)c1F — the same, 16 µg/mL
- O=C(N/N=C/c1ccc(Br)cc1O)c1ccc(Br)cc1 — 2-fold higher, 32 µg/mL
- O=C(N/N=C/c1ccc(Br)cc1O)c1cc(Br)ccc1Br — the same, 16 µg/mL
- O=C(N/N=C/c1cc(Br)ccc1O)c1ccc(Br)cc1Br — 3.7-fold higher, 59 µg/mL
- O=C(N/N=C/c1cc(Br)ccc1O)c1cc(Br)ccc1Br — 2-fold higher, 32 µg/mL
- O=C(N/N=C/c1cc(Br)cc(Br)c1O)c1cnc2ccccc2c1 [drawing 62] — 2-fold higher, 32 µg/mL
- Cc1ccc(O)c(/C=N/NC(=O)c2cc(Br)cc(Br)c2O)c1 [drawing 66] — 2-fold lower, 8 µg/mL

O=C(N/N=C/c1c(O)ccc2ccccc12)c1ccc(Br)cc1Br gave a HepG2 of over 32 µg/mL.
For O=C(N/N=C/c1ccc(Br)cc1O)c1ccc(Br)cc1Br, the HepG2 was over 64 µg/mL.

test system: C. neoformans; test: In vitro killing assay (killing curve, Kapp, 48H killing); format: cell-based, Cryptococcus neoformans; conditions: 48H
Experimental: From an overnight culture, C. neoformans cells were washed in PBS, resuspended in YNB buffered with HEPES at pH 7.4. Cells were counted and 2×10^4 cells were incubated with either 1, 2 or 4 μg/ml of compound in a final volume of 10 ml. Tubes were then incubated at 37° C. in the presence of 5% CO2 on a rotary shaker at 200 rpm. At the illustrated time points, aliquots were taken and diluted and 100 μL was plated onto yeast peptone dextrose (YPD) plates. YPD plates were incubated in a 30° C. incubator and, after 72 hours, colony forming units (CFU) were counted and recorded.

For O=C(N/N=C/c1ccc(Br)cc1O)c1ccc(Br)cc1, the “Killing assay 48H (μg/mL)” value was “Fungistatic”.
For O=C(N/N=C/c1cc(Br)cc(Br)c1O)c1cnc2ccccc2c1 [drawing 62], the “Killing assay 48H (μg/mL)” value was “Fungistatic”.

test system: A549; test: A549 toxicity; format: cell-based; conditions: Tables 1-3

Point of comparison: O=C(N/N=C/c1cc(Br)ccc1O)c1cc(Br)ccc1Br, A549 16 µg/mL. Against it:
- Cc1ccc(O)c(/C=N/NC(=O)c2cc(Br)ccc2O)c1 — the same, 16 µg/mL
- Cc1ccc(O)c(/C=N/NC(=O)c2ccc(Br)cc2Br)c1 — 2-fold higher, 32 µg/mL
- Cc1ccc(O)c(/C=N/NC(=O)c2cc(Br)ccc2Br)c1 — 2-fold higher, 32 µg/mL
- O=C(N/N=C/c1cc(Cl)ccc1O)c1ccc(Br)cc1Br — 4-fold higher, 64 µg/mL
- O=C(N/N=C/c1cc(Cl)ccc1O)c1cccc(F)c1F — 4.5-fold higher, 72 µg/mL
- O=C(N/N=C/c1cc(Cl)ccc1O)c1cc(Br)ccc1Br — 3.7-fold higher, 59 µg/mL
- O=C(N/N=C/c1cc(Cl)cc(Cl)c1O)c1cc(Br)ccc1Br — 2-fold higher, 32 µg/mL
- O=C(N/N=C/c1c(O)ccc2ccccc12)c1ccc(Br)cc1Br — the same, 16 µg/mL
- O=C(N/N=C/c1c(O)ccc2ccccc12)c1cc(Br)ccc1Br — 2-fold higher, 32 µg/mL
- O=C(N/N=C/c1ccc(Br)cc1O)c1cccc(F)c1F — the same, 16 µg/mL
- O=C(N/N=C/c1ccc(Br)cc1O)c1ccc(Br)cc1 — the same, 16 µg/mL
- O=C(N/N=C/c1ccc(Br)cc1O)c1cc(Br)ccc1Br — 2-fold higher, 32 µg/mL
- O=C(N/N=C/c1cc(Br)cc(Br)c1O)c1cnc2ccccc2c1 [drawing 62] — 2-fold higher, 32 µg/mL
- Cc1ccc(O)c(/C=N/NC(=O)c2cc(Br)cc(Br)c2O)c1 [drawing 66] — 4-fold lower, 4 µg/mL

Work on O=C(N/N=C/c1cc(Cl)cc(Cl)c1O)c1ccc(Br)cc1Br yielded an A549 of over 64 µg/mL.
O=C(N/N=C/c1ccc(Br)cc1O)c1cccc(Br)c1 showed an A549 of over 32 µg/mL.
O=C(N/N=C/c1ccc(Br)cc1O)c1ccc(Br)cc1Br gave an A549 of over 32 µg/mL.
In the case of O=C(N/N=C/c1cc(Br)ccc1O)c1ccc(Br)cc1Br, the A549 is reported as over 32 µg/mL.

test system: C. neoformans; test: In vitro susceptibility testing (MIC / IC80); format: cell-based, Cryptococcus neoformans; conditions: Cryptococcus neoformans; Tables 1-3
Experimental: Minimal inhibitory concentration (MIC) was determined following the methods of the Clinical Laboratory Standards Institutes (CLSI) with modifications. MIC studies used either RPMI or YNB medium (pH 7.0, 0.2% glucose) buffered with HEPES. […] The compound was serially diluted from 32 to 0.03 μg/ml or 19 to 0.02 μg/ml respectively in a 96 well plate with the respective medium. The yeast inoculum was prepared as described in the CLSI protocol M27-A3 guidelines. Plates were incubated at 37° C. and in the presence of 5% CO2 for 24-96 hours. Against all fungal isolates used in the initial susceptibility screen, the MICs were determined as the lowest concentration of the drug that inhibited 50% of growth compared to the control. MIC80 and MIC100, whose drug concentrations inhibited 80% and 100% growth compared to the control respectively, were also determined. For antibacterial activity, E. coli DH5a and P. aeruginosa PA14 were grown overnight in Luria Bertani (LB) broth at 30° C. The cells were washed with PBS and counted. Then, 300 μL from 2×10^8 cells/mL was spreaded onto LB agar plate using a hockey stick glass spreader. The plate was dried, and wells were punched out using a cut tip. Fifty microliters of different drug concentration was added to the well. The plate was then incubated at 30° C. for 24 hours.

Point of comparison: O=C(N/N=C/c1ccc(Br)cc1O)c1cccc(Br)c1, IC80 0.5 µg/mL (≈ 1.26 µM). Against it:
- Cc1ccc(O)c(/C=N/NC(=O)c2cc(Br)ccc2O)c1 — 2-fold lower, 0.25 µg/mL (≈ 0.716 µM)
- Cc1ccc(O)c(/C=N/NC(=O)c2ccc(Br)cc2Br)c1 — 2-fold higher, 1 µg/mL (≈ 2.43 µM)
- Cc1ccc(O)c(/C=N/NC(=O)c2cc(Br)ccc2Br)c1 — 2-fold higher, 1 µg/mL (≈ 2.43 µM)
- O=C(N/N=C/c1cc(Cl)ccc1O)c1ccc(Br)cc1Br — 2-fold lower, 0.25 µg/mL (≈ 0.578 µM)
- O=C(N/N=C/c1cc(Cl)ccc1O)c1cccc(F)c1F — 2-fold higher, 1 µg/mL (≈ 3.22 µM)
- O=C(N/N=C/c1cc(Cl)ccc1O)c1cc(Br)ccc1Br — 2-fold lower, 0.25 µg/mL (≈ 0.578 µM)
- O=C(N/N=C/c1cc(Cl)cc(Cl)c1O)c1ccc(Br)cc1Br — 2-fold higher, 1 µg/mL (≈ 2.14 µM)
- O=C(N/N=C/c1cc(Cl)cc(Cl)c1O)c1cc(Br)ccc1Br — the same, 0.5 µg/mL (≈ 1.07 µM)
- O=C(N/N=C/c1c(O)ccc2ccccc12)c1ccc(Br)cc1Br — 4.2-fold lower, 0.12 µg/mL (≈ 0.268 µM)
- O=C(N/N=C/c1c(O)ccc2ccccc12)c1cc(Br)ccc1Br — 2-fold lower, 0.25 µg/mL (≈ 0.558 µM)
- O=C(N/N=C/c1ccc(Br)cc1O)c1ccc(Br)cc1Br — 8.3-fold lower, 0.06 µg/mL (≈ 0.126 µM)
- O=C(N/N=C/c1ccc(Br)cc1O)c1cccc(F)c1F — the same, 0.5 µg/mL (≈ 1.41 µM)
- O=C(N/N=C/c1ccc(Br)cc1O)c1ccc(Br)cc1 — 8.3-fold lower, 0.06 µg/mL (≈ 0.151 µM)
- O=C(N/N=C/c1ccc(Br)cc1O)c1cc(Br)ccc1Br — 4.2-fold lower, 0.12 µg/mL (≈ 0.252 µM)
- O=C(N/N=C/c1cc(Br)ccc1O)c1ccc(Br)cc1Br — 4.2-fold lower, 0.12 µg/mL (≈ 0.252 µM)
- O=C(N/N=C/c1cc(Br)ccc1O)c1cc(Br)ccc1Br — 2-fold lower, 0.25 µg/mL (≈ 0.524 µM)
- O=C(N/N=C/c1cc(Br)cc(Br)c1O)c1cnc2ccccc2c1 [drawing 62] — 2-fold lower, 0.25 µg/mL (≈ 0.557 µM)
- Cc1ccc(O)c(/C=N/NC(=O)c2cc(Br)cc(Br)c2O)c1 [drawing 66] — 2-fold lower, 0.25 µg/mL (≈ 0.584 µM)
